Article PMC8668186, “Molecular architecture of the human tRNA ligase complex” (eLife, 2021)

Biological target: T1, RTCB (Homo sapiens, UniProt Q9Y3I0)
T1 construct: full length (505 residues), N-terminal His6 tag removed with TEV protease, expressed in Sf9 insect cells; model residues 3-505 with gaps
T1 sequence (Q9Y3I0 1-505): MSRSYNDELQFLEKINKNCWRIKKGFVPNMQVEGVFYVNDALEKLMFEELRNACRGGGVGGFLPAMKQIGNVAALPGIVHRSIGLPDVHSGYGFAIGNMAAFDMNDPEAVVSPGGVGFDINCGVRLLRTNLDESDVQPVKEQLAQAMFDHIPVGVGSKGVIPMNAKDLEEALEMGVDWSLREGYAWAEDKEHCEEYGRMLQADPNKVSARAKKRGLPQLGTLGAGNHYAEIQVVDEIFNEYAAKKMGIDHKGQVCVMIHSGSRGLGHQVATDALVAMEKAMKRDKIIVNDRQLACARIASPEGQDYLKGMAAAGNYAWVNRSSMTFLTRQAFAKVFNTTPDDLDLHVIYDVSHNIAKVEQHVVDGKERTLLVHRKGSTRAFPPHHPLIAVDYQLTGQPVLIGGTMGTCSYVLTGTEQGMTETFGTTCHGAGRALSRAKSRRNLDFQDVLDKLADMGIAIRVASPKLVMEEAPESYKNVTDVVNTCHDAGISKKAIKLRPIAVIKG
Assay: X-ray crystal structure, […] Å
Format: binding
Settings: two Co2+ ions in active site, crystallised at pH 5.5, 20 °C, 5 mM CoCl2, 0.5 mM GMP, non-covalent product-bound state

Nc1nc2c(ncn2[C@@H]2O[C@H](COP(=O)(O)O)[C@@H](O)[C@H]2O)c(=O)[nH]1 [GMP]
X-ray crystal structure, 2.3 Å: crystal structure of human RTCB in complex with a GMP molecule and two divalent cobalt
